Measured values published in patent publication US10329303B2, “Heterocyclic inhibitors of monocarboxylate transporter” (THE SCRIPPS RESEARCH INSTITUTE, priority 2015, dated 2019).

Tested on: Raji (Burkitt's) lymphoma cells
Experiment: MTT assay for 4-day viability of Raji (Burkitt's) lymphoma cells
Assay type: cell-based
Conditions: Homo sapiens, 96 h, Raji cells (highly express MCT1), read-out: approximate potency (EC50)
Description: Specific Examples 1-52 of compounds of the invention, with estimated EC50 values determined using an MTT assay for 4-day viability of Raji (Burkitt's) lymphoma cells, a cell line known to highly express MCT1 and to be sensitive to small molecule MCT inhibitors,^4 are shown in Table 2. Assay protocols follow those described in the literature.^4 Other assays that are not described here but that are standard in the field, such as an assay for competitive inhibition of transport of radiolabeled lactic acid, an MCT substrate, may also be useful in establishing mechanism of action of these compounds.

**Q.** For `CC(C)Cc1nn(C)c(=O)c2c(-c3csc(C(O)C(F)(F)F)n3)n(Cc3cccc4ccccc34)cc12` (stereo not shown) [Example 37, 4-isobutyl-2-methyl-6-(naphthalen-1-ylmethyl)-7-(2-(2,2,2-trifluoro-1-hydroxyethyl)thiazol-4-yl)-2,6-dihydro-1H-pyrrolo[3,4-d]pyridazin-1-one], which EC50 is on record?
**A.** 100 nM

**Q.** How did the EC50 turn out when `Cc1n[nH]c(C)c1Cn1cc2c(CC(C)C)nn(C)c(=O)c2c1-c1cccc(CO)c1` [Example 43, 6-((3,5-dimethyl-1H-pyrazol-4-yl)methyl)-7-(3-(hydroxymethyl)phenyl)-4-isobutyl-2-methyl-2,6-dihydro-1H-pyrrolo[3,4-d]pyridazin-1-one] was run?
**A.** 500 nM

**Q.** For `Cc1n[nH]c(C)c1Cc1sc2c(c1-c1cccc(C(O)C(F)(F)F)c1)c(=O)n(C)c(=O)n2CC(C)C` (stereo not shown) [Example 14, 6-((3,5-dimethyl-1H-pyrazol-4-yl)methyl)-1-isobutyl-3-methyl-5-(3-(2,2,2-trifluoro-1-hydroxyethyl)phenyl)thieno[2,3-d]pyrimidine-2,4(1H,3H)-dione], which EC50 is on record?
**A.** < 20 nM

**Q.** Which EC50 does the source give for `Cc1cc(CO)c(F)c(-c2c(Cc3c(C)n[nH]c3C)sc3c2c(=O)n(C)c(=O)n3CC(C)C)c1` [Example 2, 6-((3,5-dimethyl-1H-pyrazol-4-yl)methyl)-5-(2-fluoro-3-(hydroxymethyl)-5-methylphenyl)-1-isobutyl-3-methylthieno[2,3-d]pyrimidine-2,4(1H,3H)-dione] here?
**A.** 100 nM

**Q.** `Cc1n[nH]c(C)c1Cc1sc2c(c1-c1cc(CO)c(F)cc1F)c(=O)n(C1CC1)c(=O)n2CC(C)C` [Example 19, 3-cyclopropyl-5-(2,4-difluoro-5-(hydroxymethyl)phenyl)-6-((3,5-dimethyl-1H-pyrazol-4-yl)methyl)-1-isobutylthieno[2,3-d]pyrimidine-2,4(1H,3H)-dione] was tested. Which EC50 did it give?
**A.** 70 nM

**Q.** Which EC50 does the source give for `Cc1n[nH]c(C)c1Cc1sc2c(c1-c1cc(F)c(F)c(CO)c1)c(=O)n(C1CC1)c(=O)n2CC(C)C` [Example 18, 3-cyclopropyl-5-(3,4-difluoro-5-(hydroxymethyl)phenyl)-6-((3,5-dimethyl-1H-pyrazol-4-yl)methyl)-1-isobutylthieno[2,3-d]pyrimidine-2,4(1H,3H)-dione] here?
**A.** 900 nM

**Q.** With `CC(C)Cc1nn(C)c(=O)c2c(-c3cccc(C(C)O)c3)n(Cc3ccc(-c4ccccc4)cc3)cc12` (stereo not shown) [Example 42, 6-([1,1′-biphenyl]-4-ylmethyl)-7-(3-(1-hydroxyethyl)phenyl)-4-isobutyl-2-methyl-2,6-dihydro-1H-pyrrolo[3,4-d]pyridazin-1-one] as the compound, how does the EC50 read?
**A.** 1000 to 10000 nM

**Q.** How did the EC50 turn out when `CC(C)Cc1nn(C)c(=O)c2c(-c3cc(CO)ccc3F)n(Cc3ccc(-c4ccccc4)cc3)cc12` [Example 41, 6-([1,1′-biphenyl]-4-ylmethyl)-7-(2-fluoro-5-(hydroxymethyl)phenyl)-4-isobutyl-2-methyl-2,6-dihydro-1H-pyrrolo[3,4-d]pyridazin-1-one] was run?
**A.** 800 nM

**Q.** `CC(C)Cc1nn(C)c(=O)c2c(-c3csc(CO)n3)n(Cc3cccc4ccccc34)cc12` [Example 26, 7-(2-(hydroxymethyl)thiazol-4-yl)-4-isobutyl-2-methyl-6-(naphthalen-1-ylmethyl)-2,6-dihydro-1H-pyrrolo[3,4-d]pyridazin-1-one] was tested. Which EC50 did it give?
**A.** 90 nM

**Q.** `Cc1n[nH]c(C)c1Cc1sc2c(c1-c1ccnc(CO)c1)c(=O)n(C)c(=O)n2CC(C)C` [Example 10, 6-((3,5-dimethyl-1H-pyrazol-4-yl)methyl)-5-(2-(hydroxymethyl)pyridin-4-yl)-1-isobutyl-3-methylthieno[2,3-d]pyrimidine-2,4(1H,3H)-dione] was tested. Which EC50 did it give?
**A.** 90 nM

**Q.** With `CC(C)Cc1nn(C)c(=O)c2c(-c3cccc(CO)c3)n(Cc3cc(NCCCCCN)nc4ccccc34)cc12` [Example 49, 6-((2-((5-aminopentyl)amino)quinolin-4-yl)methyl)-7-(3-(hydroxymethyl)phenyl)-4-isobutyl-2-methyl-2,6-dihydro-1H-pyrrolo[3,4-d]pyridazin-1-one] as the compound, how does the EC50 read?
**A.** 1000 to 10000 nM

**Q.** Which EC50 does the source give for `Cc1n[nH]c(C)c1Cc1sc2c(c1-c1cccc(CO)c1F)c(=O)n(C1CC1)c(=O)n2CC(C)C` [Example 20, 3-cyclopropyl-6-((3,5-dimethyl-1H-pyrazol-4-yl)methyl)-5-(2-fluoro-3-(hydroxymethyl)phenyl)-1-isobutylthieno[2,3-d]pyrimidine-2,4(1H,3H)-dione] here?
**A.** ≤ 20 nM

**Q.** `CC(C)Cc1nn(C)c(=O)c2c(-c3cccc(C(O)C(F)(F)F)c3)n(Cc3cccc4ccccc34)cc12` (stereo not shown) [Example 40, 4-isobutyl-2-methyl-6-(naphthalen-1-ylmethyl)-7-(3-(2,2,2-trifluoro-1-hydroxyethyl)phenyl)-2,6-dihydro-1H-pyrrolo[3,4-d]pyridazin-1-one] was tested. Which EC50 did it give?
**A.** 50 nM

**Q.** With `Cc1n[nH]c(C)c1Cc1sc2c(c1-c1cccc(CO)c1)c(=O)n(C1CC1)c(=O)n2CC(C)C` [Example 24, 3-cyclopropyl-6-((3,5-dimethyl-1H-pyrazol-4-yl)methyl)-5-(3-(hydroxymethyl)phenyl)-1-isobutylthieno[2,3-d]pyrimidine-2,4(1H,3H)-dione] as the compound, how does the EC50 read?
**A.** 1000 nM

**Q.** For `CC(C)Cc1nn(C)c(=O)c2c(-c3cccc(C(C)O)n3)n(Cc3cccc4ccccc34)cc12` (stereo not shown) [Example 34, 7-(6-(1-hydroxyethyl)pyridin-2-yl)-4-isobutyl-2-methyl-6-(naphthalen-1-ylmethyl)-2,6-dihydro-1H-pyrrolo[3,4-d]pyridazin-1-one], which EC50 is on record?
**A.** 1000 nM

**Q.** How did the EC50 turn out when `CC(C)Cc1nn(C)c(=O)c2c(-c3ccc(F)c(CO)c3F)n(Cc3cccc4ccccc34)cc12` [Example 27, 7-(2,4-difluoro-3-(hydroxymethyl)phenyl)-4-isobutyl-2-methyl-6-(naphthalen-1-ylmethyl)-2,6-dihydro-1H-pyrrolo[3,4-d]pyridazin-1-one] was run?
**A.** 80 nM

**Q.** `CC(C)Cc1nn(C)c(=O)c2c(-c3csc(C(O)C(F)(F)F)c3)n(Cc3cccc4ccccc34)cc12` (stereo not shown) [Example 38, 4-isobutyl-2-methyl-6-(naphthalen-1-ylmethyl)-7-(5-(2,2,2-trifluoro-1-hydroxyethyl)thiophen-3-yl)-2,6-dihydro-1H-pyrrolo[3,4-d]pyridazin-1-one] was tested. Which EC50 did it give?
**A.** ≤ 20 nM

**Q.** Which EC50 does the source give for `Cc1n[nH]c(C)c1Cc1sc2c(c1-c1cccc(CO)c1F)c(=O)n(C)c(=O)n2CC(C)C` [Example 1, 6-((3,5-dimethyl-1H-pyrazol-4-yl)methyl)-5-(2-fluoro-3-(hydroxymethyl)phenyl)-1-isobutyl-3-methylthieno[2,3-d]pyrimidine-2,4(1H,3H)-dione] here?
**A.** ≤ 20 nM

**Q.** `Cc1n[nH]c(C)c1Cc1sc2c(c1-c1cccc(CO)c1)c(=O)n(C)c(=O)n2CC(C)C` [Example 15, 6-((3,5-dimethyl-1H-pyrazol-4-yl)methyl)-5-(3-(hydroxymethyl)phenyl)-1-isobutyl-3-methylthieno[2,3-d]pyrimidine-2,4(1H,3H)-dione] was tested. Which EC50 did it give?
**A.** < 20 nM

**Q.** How did the EC50 turn out when `Cc1n[nH]c(C)c1Cc1sc2c(c1-c1cc(F)c(F)c(CO)c1)c(=O)n(C)c(=O)n2CC(C)C` [Example 5, 5-(3,4-difluoro-5-(hydroxymethyl)phenyl)-6-((3,5-dimethyl-1H-pyrazol-4-yl)methyl)-1-isobutyl-3-methylthieno[2,3-d]pyrimidine-2,4(1H,3H)-dione] was run?
**A.** 160 nM

**Q.** `Cc1n[nH]c(C)c1Cc1sc2c(c1-c1ccnc(CO)c1)c(=O)n(C1CC1)c(=O)n2CC(C)C` [Example 23, 3-cyclopropyl-6-((3,5-dimethyl-1H-pyrazol-4-yl)methyl)-5-(2-(hydroxymethyl)pyridin-4-yl)-1-isobutylthieno[2,3-d]pyrimidine-2,4(1H,3H)-dione] was tested. Which EC50 did it give?
**A.** ≤ 20 nM

**Q.** Which EC50 does the source give for `CC(C)Cc1nn(C)c(=O)c2c(-c3ncc(CO)s3)n(Cc3cccc4ccccc34)cc12` [Example 25, 7-(5-(hydroxymethyl)thiazol-2-yl)-4-isobutyl-2-methyl-6-(naphthalen-1-ylmethyl)-2,6-dihydro-1H-pyrrolo[3,4-d]pyridazin-1-one] here?
**A.** 300 nM

**Q.** Which EC50 does the source give for `CC(C)Cc1nn(C)c(=O)c2c(-c3cccc(CO)c3)n(Cc3cnc(Cl)c4ccccc34)cc12` [Example 47, 6-((1-chloroisoquinolin-4-yl)methyl)-7-(3-(hydroxymethyl)phenyl)-4-isobutyl-2-methyl-2,6-dihydro-1H-pyrrolo[3,4-d]pyridazin-1-one] here?
**A.** 1000 to 10000 nM

**Q.** How did the EC50 turn out when `Cc1n[nH]c(C)c1Cn1cc2c(CC(C)C)nn(C)c(=O)c2c1-c1cccc(C(O)C(F)(F)F)c1` (stereo not shown) [Example 45, 6-((3,5-dimethyl-1H-pyrazol-4-yl)methyl)-4-isobutyl-2-methyl-7-(3-(2,2,2-trifluoro-1-hydroxyethyl)phenyl)-2,6-dihydro-1H-pyrrolo[3,4-d]pyridazin-1-one] was run?
**A.** ≤ 20 nM

**Q.** With `CC(C)Cc1nn(C)c(=O)c2c(-c3cccc(CO)c3F)n(Cc3cccc4ccccc34)cc12` [Example 29, 7-(2-fluoro-3-(hydroxymethyl)phenyl)-4-isobutyl-2-methyl-6-(naphthalen-1-ylmethyl)-2,6-dihydro-1H-pyrrolo[3,4-d]pyridazin-1-one] as the compound, how does the EC50 read?
**A.** 80 nM

**Q.** `CC(C)Cc1nn(C)c(=O)c2c(-c3cc(CO)ccc3Cl)n(Cc3cccc4ccccc34)cc12` [Example 30, 7-(2-chloro-5-(hydroxymethyl)phenyl)-4-isobutyl-2-methyl-6-(naphthalen-1-ylmethyl)-2,6-dihydro-1H-pyrrolo[3,4-d]pyridazin-1-one] was tested. Which EC50 did it give?
**A.** 600 nM

**Q.** For `Cc1n[nH]c(C)c1Cc1sc2c(c1-c1ccc(F)c(CO)c1)c(=O)n(C1CC1)c(=O)n2CC(C)C` [Example 16, 3-cyclopropyl-6-((3,5-dimethyl-1H-pyrazol-4-yl)methyl)-5-(4-fluoro-3-(hydroxymethyl)phenyl)-1-isobutylthieno[2,3-d]pyrimidine-2,4(1H,3H)-dione], which EC50 is on record?
**A.** 220 nM

**Q.** For `Cc1n[nH]c(C)c1Cc1sc2c(c1-c1cc(CO)ccc1F)c(=O)n(C1CC1)c(=O)n2CC(C)C` [Example 22, 3-cyclopropyl-6-((3,5-dimethyl-1H-pyrazol-4-yl)methyl)-5-(2-fluoro-5-(hydroxymethyl)phenyl)-1-isobutylthieno[2,3-d]pyrimidine-2,4(1H,3H)-dione], which EC50 is on record?
**A.** ≤ 20 nM
